Measurements taken from PubChem BioAssay AID2061108 (Research group of Professor Matthew Todd, School of …, 2025).
Calls of active or inactive are those of the source. The rule behind the calls is not given here.

What was measured:
Assay in all cases: microbial growth inhibition plus red cell haemolysis – Idler compounds, first plate, PMBN-permeabilized strains, profiling panel (AID 2061108)
Parameters in all cases: haemolysis: dose or concentration left out as unconfirmed
[1] = tested on: E. coli NCTC 12923 + PMBN growth inhibition, 100 uM; conditions: S. aureus ATCC 9144 growth inhibition; measured here: E. coli plus PMBN; at 100 µM; stronger effect = higher value
[2] = tested on: A. baumannii ATCC 17978 + PMBN growth inhibition, 100 uM; conditions: A. baumannii plus PMBN growth inhibition, 100 µM; stronger effect = higher value
[3] = tested on: M. abscessus growth inhibition, 10 uM; conditions: S. aureus ATCC 9144 growth inhibition; measured here: M. abscessus; at 10 µM
[4] = tested on: A. baumannii ATCC 17978 growth inhibition, 100 uM; conditions: S. aureus ATCC 9144 growth inhibition; measured here: A. baumannii ATCC 17978; at 100 µM; stronger effect = higher value
[5] = tested on: S. aureus ATCC 9144 growth inhibition, 100 uM; conditions: S. aureus ATCC 9144 growth inhibition; at 100 µM; stronger effect = higher value
[6] = tested on: red blood cell haemolysis; conditions: stronger effect = higher value; dose or concentration not given here
[7] = tested on: E. coli NCTC 12923 growth inhibition, 100 uM; conditions: E. coli NCTC 12923 growth inhibition, 100 µM; stronger effect = higher value
[8] = tested on: C. albicans NCPF 3281 growth inhibition, 100 uM; conditions: S. aureus ATCC 9144 growth inhibition; measured here: C. albicans NCPF 3281; at 100 µM; stronger effect = higher value
[9] = tested on: M. avium growth inhibition, 10 uM; conditions: M. avium growth inhibition, 10 µM

Structure (SMILES)	inhibition [1]	inhibition [2]	inhibition [3]	inhibition [4]	inhibition [5]	haemolysis [6]	inhibition [7]	inhibition [8]	inhibition [9]
NC(=O)CSc1nnc(COc2ccccc2)n1-c1ccccc1	2.8%	23.4%	0.484%	0.843%	15.3% (inactive)	0.123%	-3.24%	-39.3%	0.364%
N#Cc1c(N2C[C@@H](CC(N)=O)[C@H](O)C2)nc2ccccc2c1C(F)(F)F	11.6%	28.3%	-0.687%	-4.88%	9.67% (inactive)	0.173%	0.811%	-24.4%	0.858%
O=C(Nc1ccc(-c2nn[nH]n2)cc1)c1ccc(Oc2ccccc2)cc1	17.2%	16.4%	-0.941%	-0.833%	16.2% (inactive)	-0.191%	0.27%	-19.7%	-1.24%
COC(=O)c1ccc(C2CN(c3ccnc(S(=O)(=O)F)c3)C2)nc1	11.4%	22.5%	-1.03%	0.357%	16.7% (inactive)	-0.16%	1.62%	-28.7%	0.0988%
Cc1ccc(N2CN(CC(=O)Nc3ccccc3Cl)S(=O)(=O)c3cccnc32)cc1	-25.9%	4.43%	0.131%	-6.75%	-17.7% (inactive)	0.453%	-45.3%	-124%	-1.53%
CC(Nc1ccc2oc(=O)[nH]c2c1)C(=O)Nc1ccccc1C#N (configuration not stated)	-6.79%	14.5%	-1.22%	-0.833%	8.83% (inactive)	0.275%	-4.73%	28%	0.0692%
Nc1ncnc2cc(-c3cccc(S(=O)(=O)NC(=O)C(N)Cc4ccccc4)c3)sc12 (configuration not stated)	-18.8%	3.19%	-0.63%	1.55%	-16.5% (inactive)	0.0594%	-49.3%	-49.9%	11.7%
Cn1c(=O)oc2cc(S(=O)(=O)NC3CC4CCC3C4)ccc21 (configuration not stated)	-2.35%	25.8%	-0.526%	-1.79%	17.3% (inactive)	-0.134%	-0.946%	-18.8%	-0.637%
Cc1ccn2c(=O)nc(SCC(=O)OCc3ccccc3)nc2c1	-29.4%	5.22%	-0.803%	0.238%	7% (inactive)	-0.0134%	-34.5%	-102%	-0.191%
N#Cc1c(Cl)nc2ccccc2c1C(F)(F)F	-1.22%	31.1%	0.0452%	3.86%	10% (inactive)	0.129%	-10%	-47.1%	0.667%
COc1ccc(-c2nc(N3CCC(N(C)C)C3)c3cc(OC)c(OC)cc3n2)cc1 (configuration not stated)	-11%	39.9%	0.735%	-3.73%	10.4% (inactive)	0.312%	6.35%	2.3%	3.41%
C=CC(=O)N1CCC[C@H](CC(=O)O)C1	5.85%	22.4%	-0.00311%	0%	14.4% (inactive)	-0.0261%	-6.76%	-64.4%	0.225%
Nc1ncc(/C=N/NC(=O)c2ccncc2)cn1	-2.1%	11.3%	-0.71%	-1.43%	19.2% (inactive)	-0.164%	-0.946%	3.92%	0.0378%
O=C(CSc1nc(=O)[nH]c2c1CCC2)c1ccc(Cl)cc1	-20%	10.9%	-0.381%	0%	-14.2% (inactive)	0.151%	-22%	-110%	0.488%
Nc1ncnc2cc(-c3cccc(S(N)(=O)=O)c3)sc12	91.6%	-11.6%	0.72%	-9.52%	27.3%	-0.345%	1.22%	-67.9%	50.5%
FC(F)Oc1ccc(-c2nnc3cncc(OCCCC(F)(F)F)n23)cc1	-9.02%	4.86%	-0.237%	-14.8%	-9.47% (inactive)	0.0506%	-7.16%	-49.2%	-0.289%
O=C(N/N=C/C1CCOCC1)c1ccncc1	1.11%	13.2%	-2.72%	0.357%	16% (inactive)	1.63%	-1.62%	-26.5%	4.75%
N#Cc1ccc(NC2Cc3cccc(O)c3C2)cc1Cl (configuration not stated)	101%	101%	-0.909%	65.2%	100%	0.539%	25%	100%	0.34%
COc1ccc(-c2ccc(CNc3ccnc(S(=O)(=O)F)c3)s2)cc1	14.7%	38%	-0.879%	8.21%	24.7%	2.61%	5.81%	98.4%	-0.555%
O=c1[nH]c(=O)c2cc(S(=O)(=O)Nc3cc(F)c(N4CCC(N5CCOCC5)CC4)c(F)c3)ccc2[nH]1	1.59%	19.7%	-0.0703%	4.34%	14.7% (inactive)	0.307%	-6.35%	-44.5%	0.48%
N#Cc1ccc(NC2Cc3cccc(O)c3C2)cc1C(F)(F)F (configuration not stated)	100%	100%	-0.648%	68.5%	99.7%	2.84%	22.3%	100%	-0.176%
COc1ccc(/C=C(\C#N)S(=O)(=O)c2ccccc2)cc1OC	3.58%	12.6%	-0.905%	0.595%	16.3% (inactive)	2.6%	-0.135%	-60.8%	-0.352%
Cc1cccc(C)c1OCC(O)CSc1ccccn1 (configuration not stated)	59.6%	51.9%	-0.104%	11.9%	-7.89% (inactive)	0.214%	-44.2%	-34.4%	-0.789%
O=S(=O)(Nc1ccc(Oc2ccccc2)cc1)c1ccc(-c2nn[nH]n2)cc1	21.7%	34.1%	-0.359%	-18.3%	70% (inactive)	1.69%	0.135%	-30.5%	0.208%
COc1cc2nc(N3CCC(N(C)C)C3)nc(N3CCN(C(=O)OC(C)(C)C)CC3)c2cc1OC (configuration not stated)	10.1%	29.6%	-0.0588%	-7.35%	7.89% (inactive)	0.172%	2.57%	-73.8%	3.78%
O=C(Cc1ccc(C(F)(F)F)nc1)N1Cc2cccnc2C1	-4.27%	22%	-0.0961%	0.241%	6.84% (inactive)	4.32%	-5.95%	-94.2%	0.169%
NC(=O)C1CCN(c2nc(OCc3ccc(F)nc3)nc(N3CCCOCC3)n2)CC1	-2.07%	9.86%	-0.107%	-0.843%	18.4% (inactive)	1.34%	-2.97%	-78.3%	0.922%
COc1cc2nc(NCCCN(C)C)nc(N3CC(N(C)C)C3)c2cc1OC	2.07%	29.9%	1.59%	17.3%	37.5% (inactive)	0.15%	11.5%	-118%	5.58%
